For 94 compounds, logD results are on record in ChEMBL document CHEMBL3301361, “Experimental in vitro DMPK and physicochemical data on a set of publicly disclosed compounds”.

As usually defined, the logD is lipophilicity at a set pH, counting ionised and neutral species.

This data set is described as follows: physchem. The settings on record: octan-1-ol/water, pH 7.4, LogD7.4.
With `Cc1cccc(C(=O)N2CCC(C(=O)c3ccc(F)cc3)CC2)c1`, the pH-dependent lipophilicity (logD) was found to be 3.4.

The compound `Cc1cc(C)c2c(N)c(C(=O)NCc3ccccc3)sc2n1` yielded a log distribution coefficient (logD) of 3.41.

Regarding `CC(C)Cn1c(=O)n(C)c(=O)c2c(C(=O)N3CC=CC3)c(Cc3ccccc3C(F)(F)F)sc21`, the logD is 3.53.

Turning to `CNC(=O)c1ccc(CCC(COc2ccc(-c3cccc([N+](=O)[O-])c3)cc2)N2C(=O)CSC2=O)cc1` (centres undefined), the logD was 3.5.

`N#CCc1c[nH]c2ccc(OCc3ccccc3)cc12` yielded a logD of 3.71.

On to `O=C(COCc1ccccn1)N1CCN(c2ccc(Cl)cc2Cl)CC1`, for which the logD was found to be 3.47.

The compound `Nc1ccc(Cl)c(C(=O)NCC23CC4CC(CC(C4)C2)C3)c1` came in with a pH-dependent lipophilicity (logD) of 3.45.

In turn, `Cc1cc(NCc2ccccc2)nc2ccccc12` gave a log distribution coefficient (logD) of 3.69.

As for `Cc1[nH]c2nc(NCc3cccc(Br)c3)nn2c(=O)c1Cc1ccccc1`, the logD was determined as 3.68.

`Cc1ccc(Oc2ccc(C(=O)NCc3ccncc3)cc2)cc1` displayed a pH-dependent lipophilicity (logD) of 3.65.

For the compound `CCCS(=O)(=O)N1CCCC(C(=O)N2CCC(Cc3ccccc3)CC2)C1` (centres undefined), the logD was 3.44.

Turning to `Cn1c(CN2CCN(c3cccc(Cl)c3)CC2)nc2ccccc21`, the log distribution coefficient (logD) is 3.75.

The compound `CCNc1nc(N)c(C(=O)c2ccc(Cl)s2)s1` yielded a logD of 3.63.

For `O=C(Nc1ccccc1)c1cc2ccccc2o1`, the logD was determined as 3.44.

On to `O=C(Nc1nc(-c2ccccc2)cs1)c1cccnc1`, for which the pH-dependent lipophilicity (logD) came out at 3.62.

`COc1ccc(C(=O)Nc2cccc(NC(=O)c3ccc(OC)c(OC)c3)n2)cc1OC` came in with a log distribution coefficient (logD) of 3.5.

As to `COc1ccc(Cl)cc1NC(=O)CCS(=O)(=O)c1ccc(Br)cc1`, the logD is 3.4.

In the case of `CN(C)c1ccnc2sc(C(=O)NCc3ccccc3)c(N)c12`, the logD was 3.62.

For the compound `CCCc1c(C(=O)Nc2cc(C)on2)cnn1-c1ccccc1`, the logD was 3.7.

In the case of `Cc1[nH]c2nc(NCc3cccc(Cl)c3)nn2c(=O)c1Cc1ccccc1`, the log distribution coefficient (logD) was 3.6.

In the case of `Clc1cccc(-n2nnnc2NCc2ccccc2Oc2ccccn2)c1Cl`, the log distribution coefficient (logD) was determined as 3.62.

Consider `Cn1cnc2cc(C#Cc3ccccc3)cnc21`, for which the logD turned out to be 3.5.

Regarding `CCN1CCOc2cc(COc3ccccc3)cnc21`, the logD amounted to 3.7.

`CC[C@H](NC(=O)c1c([S+](C)[O-])c(-c2ccc(F)cc2)nc2ccccc12)c1ccccc1` (some centres undefined) showed a logD of 3.72.

For `CC[C@H](NC(=O)c1c([S+](C)[O-])c(-c2cccs2)nc2ccccc12)c1ccccc1` (some centres undefined), the logD was found to be 3.56.

Turning to `CC[C@H](NC(=O)c1c([S+]([O-])CC)c(-c2ccccc2)nc2ccccc12)c1ccccc1` (some centres undefined), the logD is 3.45.

`CC[C@H](NC(=O)c1c([S+](C)[O-])c(-c2ccccc2)nc2cc(F)ccc12)c1ccccc1` (some centres undefined): the logD stood at 3.62.

`Cc1[nH]c2nc(NCc3ccc(Cl)cc3)nn2c(=O)c1Cc1ccccc1`: the logD came to 3.7.

In turn, `COc1cc(Nc2nccc(Oc3cnc4ccccc4c3)n2)cc(OC)c1OC` yielded a logD of 3.41.

For `CN(c1ccccc1)c1ccnc(Nc2cc(N3CCOCC3)cc(N3CCOCC3)c2)n1`, the pH-dependent lipophilicity (logD) is 3.47.

Take `Cc1ccc(CO)cc1N(C)c1ccnc(Nc2cc(OC3CCOCC3)cc(N3CCOCC3)c2)n1`: the logD turned out to be 3.7.

Turning to `Cc1nc(C(=O)[C@@H](C)Oc2ccc(SCCCCCc3ccccc3)cc2)sc1CCCC(=O)O`, the logD was 3.58.

`COc1cc(F)ccc1-c1cncc(CNC(=O)c2ccccc2)c1` showed a logD of 3.76.

For `COc1ccc(OC)c(-c2cccc3c(N)c(C(=O)NC(C)C)nnc23)c1`, the log distribution coefficient (logD) was 3.65.

Consider `COc1ccc(OC)c(-c2c(F)ccc3c(N)c(C(=O)NC4CC4)nnc23)c1`, for which the pH-dependent lipophilicity (logD) was 3.47.

On to `COc1ncc(C)cc1-c1cccc2c(N)c(C(=O)NC3CC3)nnc12`, for which the log distribution coefficient (logD) came to 3.4.

In the case of `O=C1O[C@@H](Cn2nncc2F)CN1c1ccc(C2=CCS(=O)(=O)CC2)c(F)c1`, the logD was 3.54.

`CCN(C(=O)Cc1ccc(S(=O)(=O)N(C)C)cc1)C1CCN(CCC(c2ccccc2)c2ccccc2)CC1` registered a logD of 3.7.

`CN(C(=O)Cc1ccc(C#N)cc1)C1CCN(CCC(c2ccccc2)c2ccccc2)CC1` came in with a logD of 3.7.

In the case of `COc1cc(N2CCN(C(C)=O)CC2)ccc1Nc1ncc(Br)c(-c2cnc3ccccn23)n1`, the logD stood at 3.7.

In turn, `COc1cc(N2CCN(C(C)=O)CC2)ccc1Nc1ncc(Cl)c(-c2cnc3c(OC)cccn23)n1` displayed a log distribution coefficient (logD) of 3.5.

Regarding `COc1cc(N2CCN(C(C)=O)CC2)ccc1Nc1ncc(Cl)c(-c2cnc3cc(F)ccn23)n1`, the log distribution coefficient (logD) came out at 3.7.

`COc1ccc(C(=O)Nc2cc(NC(=O)c3cccc(N(C)C)c3)ccc2Br)cc1OC` returned a logD of 3.49.

`N#Cc1cc(O)cc2nc(-c3ccc(O)cc3)oc12` gave a logD of 3.6.

Turning to `CCc1ccccc1-c1ccc(-c2nc3ccncc3c(O)c2C#N)cc1`, the logD is 3.5.

`CCOc1cccc(Nc2nnc(C(=O)Nc3ccc(N4CCOCC4)nc3)o2)c1` came in with a logD of 3.6.

The compound `O=[N+]([O-])c1cccc2ccc(C(Cl)(Cl)Cl)nc12` gave a logD of 3.7.

For the compound `O=C(Nc1ccc(Cl)nc1)c1ccc(F)c(Cl)c1`, the log distribution coefficient (logD) turned out to be 3.64.

The compound `CC#CCn1c(=O)c2c(-c3cncn3C)n(Cc3ccnc4ccc(Cl)cc34)nc2n(CC2CC2)c1=O` returned a logD of 3.61.

As for `Cn1cncc1-c1c2c(=O)n(C3CC3)c(=O)n(CC3CC3)c2nn1Cc1ccnc2ccc(Cl)cc12`, the logD was determined as 3.53.

For `C#CC(C)n1c(=O)c2c(-c3cncn3C)n(Cc3ccnc4ccc(Cl)cc34)nc2n(CC2CC2)c1=O` (centres undefined), the logD was 3.59.

For `Cn1cc(C#N)cc1-c1c2c(=O)n(CC#CCn3cncn3)c(=O)n(CC3CC3)c2nn1Cc1ccnc2ccc(Cl)cc12`, the logD is 3.43.

Turning to `COc1cc(CCc2cc(Nc3ccnc(NCc4ccccn4)n3)[nH]n2)cc(OC)c1`, the pH-dependent lipophilicity (logD) is 3.5.

Regarding `C[C@H]1O[C@@H](n2cnc3c(N)nc(OCC45CC6CC(CC(C6)C4)C5)nc32)[C@H](O)[C@@H]1O`, the logD was found to be 3.58.

Compound `CC(C)c1ccccc1Cc1cc(C(=O)Nc2ccc(S(=O)(=O)c3ccccc3C(C)(C)C)cc2)c(O)c(O)c1O` displayed a logD of 3.44.

Take `CC(C)OC(=O)N1CCC(Oc2ncnc3c2CCN3c2ccc(S(C)(=O)=O)cc2F)CC1`: the logD is 3.4.

As to `Cc1cn([C@H]2CCCN(Cc3cccc(Oc4cccc(Br)c4)c3)C2)c(=O)[nH]c1=O`, the logD worked out at 3.68.

As to `CC#Cc1ccnc(-c2cc(C3(C4CC4)N=C(C)C(N)=N3)ccc2O)c1` (centres undefined), the log distribution coefficient (logD) came to 3.6.

On to `N#C/C(=C(\N)Sc1ccc(N)cc1)c1ccccc1C(F)(F)F`, for which the logD was 3.4.

In turn, `O=C(Nc1ccc(F)cc1F)c1cc(Cl)ccc1O` yielded a logD of 3.6.

In the case of `O=S(=O)(c1ccccc1)C1(c2cc(N3CCOCC3)nc(-c3cccc4[nH]ccc34)n2)CC1`, the logD was determined as 3.4.

Turning to `NC1(C(=O)NC(c2ccc(Cl)cc2)C2CC2)CCN(c2ncnc3[nH]ccc23)CC1` (centres undefined), the pH-dependent lipophilicity (logD) came out at 3.4.

On to `COCCNC(=O)c1ccc(Nc2ncc3cc(-c4ccnc(C)c4)ccc3n2)cc1`, for which the log distribution coefficient (logD) was 3.56.

Compound `CC(=O)N[C@H](C)c1ccc(Nc2ncc3cc(-c4ccncc4)cc(C)c3n2)cc1` had a logD of 3.46.

For `C[C@@H]1CN(c2nc(N3CCOC[C@@H]3C)c3ccc(-c4ccccc4)nc3n2)C[C@H](C)O1`, the pH-dependent lipophilicity (logD) was determined as 3.75.

Compound `O=C(NC1Cc2ccccc2N(CC(CO)CO)C1=O)c1cc2cc(Cl)ccc2[nH]1` (centres undefined) had a pH-dependent lipophilicity (logD) of 3.64.

The compound `O=C(NC1Cc2ccccc2N(CCCO)C1=O)c1cc2cc(Cl)sc2[nH]1` (centres undefined) displayed a pH-dependent lipophilicity (logD) of 3.49.

`CNc1nc2nc(SCc3cccc(F)c3F)nc(N[C@H](C)CO)c2s1` came in with a log distribution coefficient (logD) of 3.7.

Compound `COc1ccc2c(C)cc(N[C@H]3CCC[C@H](NCc4cccc(OC(F)(F)F)c4)C3)nc2c1` yielded a logD of 3.61.

Consider `O=C1CCCc2nc(C#Cc3ccccc3)ccc21`, for which the logD amounted to 3.53.

The compound `CCCc1c(OCCCSc2ccc(CC(=O)O)cc2Cl)ccc(C(=O)CC)c1O` had a pH-dependent lipophilicity (logD) of 3.57.

Consider `Cn1cc(C#N)cc1-c1c2c(=O)n(C)c(=O)n(CC3CC3)c2nn1Cc1ccnc2ccc(Cl)cc12`, for which the logD was 3.67.

For `Cc1cnc2c(N[C@H](C)CO)nc(SCc3cccc(F)c3F)nc2n1`, the logD turned out to be 3.55.

Compound `FC(F)(F)c1cc(CO[C@H]2CCCN[C@H]2c2ccccc2)cc(C(F)(F)F)c1` came in with a logD of 3.6.

Compound `O=C(COc1ccc(SCCCCCc2ccccc2)cc1)COc1ccc(C(=O)O)cc1` displayed a logD of 3.63.

`COC(=O)[C@H](Cc1ccc([N+](=O)[O-])cc1)NC(=O)c1cccc2ccccc12` came in with a log distribution coefficient (logD) of 3.58.

In turn, `C1CCc2c(c3c(N4CCCC4)nc(N4CCCC4)nc3n2CCN2CCOCC2)C1` displayed a logD of 3.6.

Compound `C[C@@H]1CCCN1CCc1cc2cc(-c3ccc(C#N)cc3)ccc2o1` displayed a logD of 3.51.

As for `COc1ccc(Cl)c(Nc2ncnc3cc(OC)cc(OC4CCN(C)CC4)c23)c1`, the logD amounted to 3.6.

The compound `CCNC(=O)OC[C@@H](C)N(c1cc(Cl)ccc1CO)S(=O)(=O)c1ccc(Cl)cc1` gave a logD of 3.4.

The compound `Cc1cnc2nc(SCc3cccc(F)c3F)nc(N[C@H](C)CO)c2n1` had a log distribution coefficient (logD) of 3.5.

For `CC(CNS(=O)(=O)C(C)C)c1ccc(-c2ccc(C#N)cc2)cc1` (centres undefined), the logD stood at 3.5.

`Cc1ncc(-c2ccnc(Nc3ccc(C#N)cc3)n2)n1C(C)C` yielded a pH-dependent lipophilicity (logD) of 3.62.

In the case of `Oc1ccc(-c2csc(-c3ccc(O)cc3)n2)cc1`, the pH-dependent lipophilicity (logD) amounted to 3.7.

The compound `COc1cc2ncc(C(N)=O)c(Nc3cccc(Cl)c3F)c2cc1OC` returned a logD of 3.6.

The compound `COc1cc2c(Nc3cccc(Cl)c3Cl)c(C(N)=O)cnc2cc1NCCN(C)C` had a pH-dependent lipophilicity (logD) of 3.41.

In turn, `COc1cc2ncnc(Nc3cccc(C)c3)c2cc1OC` came in with a logD of 3.5.

Compound `CCOc1ccc2nc(NC(=O)CC)sc2c1` returned a logD of 3.4.

In turn, `O=c1c(-c2ccc3c(c2)OCO3)coc2cc(O)cc(O)c12` had a logD of 3.5.

`Cn1c(CN2CCC(c3ccccc3)CC2)nc2ccccc21` gave a pH-dependent lipophilicity (logD) of 3.6.

`Cn1c(CN2CCN(c3ccc(Cl)cc3)CC2)nc2ccccc21` came in with a logD of 3.54.

Turning to `Cc1cccc(C#Cc2ccccc2)n1`, the logD stood at 3.6.

Turning to `CCN(CC)S(=O)(=O)c1ccc(NC(=O)[C@@](C)(O)C(F)(F)F)c(Cl)c1`, the log distribution coefficient (logD) amounted to 3.66.

`COc1cc2ncnc(NCc3cccc(C)c3)c2cc1OC`: the log distribution coefficient (logD) was determined as 3.5.
